Earlier results, collected in patent US20030232369A1, “Molecular structure of RNA polymerase II” (priority 2002, published 2003).

Legend:
pol II [1] = conditions: relative to α-amanitin
pol II [2] = tested on: pol II

| Compound | reduction of inhibition (fold less inhibitory than α-amanitin) (pol II [1]) | effect on transcription (pol II [2]) | influence of α-amanitin binding on the affinity of pol II for nucleoside triphosphates (pol II [2]) | rate of translocation of pol II on DNA (pol II [2]; after addition of α-amanitin to a transcribing pol II complex) |
| --- | --- | --- | --- | --- |
| proamanullin | about 20,000 fold | – | – | – |
| CC[C@H](C)[C@@H]1NC(=O)CNC(=O)[C@@H]2Cc3c([nH]c4cc(O)ccc34)[S+]([O-])C[C@@H](NC(=O)CNC1=O)C(=O)N[C@@H](CC(N)=O)C(=O)N1C[C@H](O)C[C@H]1C(=O)N[C@@H]([C@@H](C)[C@@H](O)CO)C(=O)N2 (stereo in doubt) [α-amanitin] | – | blocks both transcription initiation and elongation | little if any influence | reduced from several thousand to only a few |
| CCC(C)C1NC(=O)CNC(=O)C2Cc3c([nH]c4cc(O)ccc34)[S+]([O-])CC(NC(=O)CNC1=O)C(=O)NC(CC(N)=O)C(=O)N1CC(O)CC1C(=O)NC(C(C)CC)C(=O)N2 (centres unmarked) [amanullin] | about 4 fold | – | – | – |
